Assay results: patent US4145337A, “Aminoethylglycine containing polypeptides” (Hoffmann-La Roche Inc., priority 1977, dated 1979)
Non-standard residues stand in square brackets, D forms with d. Residues, ends and D or L forms follow the SMILES beside them. Gly(N-2-aminoethyl) = NCCNCC(=O)O

Assays:
[1] = tested on: basal gastric acid secretion; test: Gastric antisecretory activity in unanesthetized gastric fistula rat, i.v.; type: in vivo; conditions: 200 μg i.v. single bolus
Procedure: The gastric antisecretory effect of somatostatin analogs was studied in a model which utilizes unanesthetized rats.
All operative techniques were carried out on fasted female albino rats (average weight 250 g), under Penthrane anesthesia, using montraumatic microsurgical instruments, polyethylene tubing and a special adhesive. The basic model used in the present studies consisted of:
This allowed adequate hydration through the constant infusion of 0.15M NaCl (at the rate of 1.4 ml/hr.). This catheter was also used for i.v. administration of solutions of the test compounds.
(b) Catheterization of the stomach. A cannula in the forestomach allowed washing of the gastric lumen with saline (before experiments). Water (0.2 ml/10 min) was infused through this catheter during the experimental periods. This was done to prevent obstruction of the "collecting" cannula (see below) by gastric debris and to obtain a practical workable volume to measure several parameters of gastric secretion. A second cannula was positioned in the glandular stomach, close to the greater curvature, in the more dependent site and in such a way as to allow collection, by gravity, of all fluids emerging from the stomach. Passage of these secretions through a small glass container permitted continuous recording of pH by means of a glass microelectrode. A fraction collector was used to simultaneously obtain the gastric secretions.
(c) Catheterization of the lower part of the common bile duct to procure mixed secretions of bile and pancreatic juice as a function of time. This was done with the purpose of examining the effect of these compounds, if any, on bile flow.
This preparation is suitable for the bioassay of microgram quantities of gastric secretory depressants in which each animal serves as its own control. The rats (250 g b.w.) were allowed to attain a period of stabilized gastric acid output (for one hour) and were then injected intravenously (100 μl) with 200 μg of the test compound. This single bolus injection was immediately followed by a rinsing injection of 50 μl saline, thus insuring quantitative delivery of the dose. The pH was recorded continuously for 1 hour before and 1 1/2 hour after the i.v. injection of the test compounds. The gastric secretions were collected over 10-minute intervals before and after dosage. Four parameters of gastric secretion were evaluated: (a) changes in the negative logarithm of the hydrogen ion activity (pH, determined by the glass electrode either by a continuous trace or in samples taken at 10-minute intervals); (b) volume; (c) total acid concentration (μEq/ml); and d) total acid output (μEq/10-min periods).

[2] = tested on: growth hormone, insulin and glucagon; conditions: Brown et al. 1977; cited from earlier work
[3] = tested on: pentagastrin-induced gastric acid secretion; conditions: Brown et al. 1977; cited from earlier work
gastric secretion [4] = test: Gastric antisecretory activity after intragastric administration, unanesthetized rat; type: in vivo; conditions: 8 mg/kg b.w. intragastrically, saline solution
Procedure: The unanesthetized rat model was used in an exact manner to that employed in the evaluation of gastric antisecretory activity after parenteral administration described above in A, with the following modification. Following recording of the gastric pH for 1 hour, drainage of the gastric secretions was interrupted by means of a forceps. Saline solutions (total volume = 1000 μl) of Compound N (at the dose of 8 mg/kg b.w.) were then intragastrically administered, via the canula in the avascular stomach, which was closed. Fifteen minutes later, the catheter draining the gastric secretions was reopened; the water infusion through the catheter in the forestomach was simultaneously reestablished. The pH was now recorded continuously for 1 1/2 hours. Samples of gastric juice were taken before and after treatment, and analyzed for the usual four parameters of gastric secretion.

gastric mucus production = test: Stimulation of mucoprotein production: gastric mucosal carbohydrates and total protein; type: in vivo, rat; conditions: 800 μg/kg i.p.
Procedure: Overnight fasted rats received saline solutions of either Compound M or Compound A at the antisecretory dose of 800μg/kg administered intraperitoneally. Control rats were given only vehicle. All animals were sacrificed by decapitation 1 hour after dosing. After opening the abdomen the stomach was removed and its contents were washed away with 10 ml of a 0.85% NaCl solution. The excised stomachs were cut open along the greater curvature and the exposed gastric mucosa was carefully scraped. The scrapings were homogenized in 5 ml of the 0.85% NaCl solution and subjected to chemical analysis. Total hexoses were determined by the anthrone reaction, which is based on the formation in concentrated sulfuric acid of furfural derivatives which react with anthrone to form a blue-green color; this reaction has the advantage of being applied directly to the glycoprotein with color formation occuring concurrently with the liberation of sugars (Methods in Enzymology, Vol. VIII, pp. 4-5 1966). Fucose in the unhydrolyzed mucoprotein was determined by the Dische-Shettes cysteine-sulfuric acid reaction for methyl pentoses. This method allows accurate determination of fucose even in the presence of large amounts of hexoses and peptide material (Methods in Eznymology, Vol. VIII, pp 11-13 , 1966).
Total protein was determined using the Lowry method.

[5] = tested on: restraint-immersion induced gastric ulceration; test: Mouse restraint-immersion test, antiulcerogenic activity; type: in vivo
Procedure: In both studies CD-1 male mice weighing between 18-25 g were used. The mice were fasted for 19 hours prior to the initiation of restraint-immersion which involved restraining animals in rubber hoses and immersion in water (21° C.) to the height of the xiphoid process. In the first study, just prior to the initiation of the restraint-immersion procedure, mice received, via the subcutaneous route, graded amounts (0.1 to 10 mg/kg b.w.) of somatostatin (Compound A), Compound F, or vehicle (5% acacia); this administration was repeated two hours later. In the second study, the compounds (Compound A, Compound L, or vehicle) were administered only once, just prior to the initiation of the restraint-immersion procedure. Following four hours of restraint-immersion the animals (both studies) were killed and their stomachs examined for ulceration. The degree of ulceration was determined by the amount of visible blood present in the stomach and was rated on a scale of 0 to 4, with 0 being no detectable blood and 4 being a massive amount of blood. All compounds were dispersed in 5% acacia and administered at a dosage volume of 0.2 ml per 20 grams of body weight. The antiulcerogenic ED50 values were calculated using percent protection as the response and a computer program ("ED50") based on the probit method of Finney (Finney, "Probit Analysis", Cambridge University Press, 1971). The comparative effectiveness (relative potency R. P.) of somatostatin and Compound F (first study) or somatostatin and Compound L (second study) was determined from the dose responses using an "ED50" computer program.

[6] = tested on: basal gastric secretion and gastrin release; conditions: Bloom et al. 1974; cited from earlier work
[7] = tested on: restraint ulcer formation; conditions: cited from earlier work
peptic ulcer bleeding = conditions: infusion in man, Rasche et al. 1976; cited from earlier work
gastric secretion [8] = conditions: chronic fistula dog, Torchiana et al. 1977; cited from earlier work
[9] = tested on: duodenal ulcers produced by prolonged administration of pentagastrin or histamine; conditions: cats, continuous i.v. infusion 0.62 to 5.0 μg/kg-hr; cited from earlier work
[10] = tested on: gastrointestinal bleeding from residual ulcers; conditions: patient, 250 μg i.v. bolus then 250 μg per hour for 67 hours; cited from earlier work
[11] = 1 hour after dosing, mucosal scrapings

In the case of `C[C@H](N)C(=O)NCC(=O)N[C@@H](CS)C(=O)N[C@@H](CCCCN)C(=O)N[C@@H](CC(N)=O)C(=O)N[C@@H](Cc1ccccc1)C(=O)N[C@@H](Cc1ccccc1)C(=O)N[C@@H](Cc1c[nH]c2ccccc12)C(=O)N[C@@H](CCCCN)C(=O)N[C@H](C(=O)N[C@@H](Cc1ccccc1)C(=O)N[C@H](C(=O)N[C@@H](CO)C(=O)N[C@@H](CS)C(=O)O)[C@@H](C)O)[C@@H](C)O` [Compound B, HAlaGlyCysLysAsnPhePheTrpLysThrPheThrSerCysOH], the “gastric antisecretory activity (pH and acid concentration), in words, relative to somatostatin” value [1] is reported as “as active as the oxidized, cyclic somatostatin”.

With `C[C@@H](O)[C@@H]1NC(=O)[C@H](CCCCN)NC(=O)[C@H](Cc2c[nH]c3ccccc23)NC(=O)[C@H](Cc2ccccc2)NC(=O)[C@H](Cc2ccccc2)NC(=O)[C@H](CC(N)=O)NC(=O)[C@H](CCCCN)NC(=O)CN(CCN)C(=O)[C@H](CO)NC(=O)[C@H]([C@@H](C)O)NC(=O)[C@H](Cc2ccccc2)NC1=O` [Compound D, Cyclo [Aminoethylglycyl-L-lysyl-L-asparaginyl-L-phenylalanyl-L-phenylalanyl-L-tryptophyl-L-lysyl-L-threonyl-L-phenylalanyl-L-threonyl-L-seryl]] (cyclo(FFWKTFTS[Gly(N-2-aminoethyl)]KN)) the “gastric antisecretory activity (pH and acid concentration), in words, relative to somatostatin” value [1] was “erratic activity”.

With `C[C@@H](O)[C@H](NC(=O)[C@H](Cc1ccccc1)NC(=O)[C@@H](NC(=O)[C@H](CCCCN)NC(=O)[C@H](Cc1c[nH]c2ccccc12)NC(=O)[C@H](Cc1ccccc1)NC(=O)[C@H](Cc1ccccc1)NC(=O)[C@H](CC(N)=O)NC(=O)[C@H](CCCCN)NC(=O)[C@H](CS)NC(=O)CNCCN)[C@@H](C)O)C(=O)N[C@@H](CO)C(=O)N[C@@H](CS)C(=O)N(CCN)CC(=O)O` [Compound J, Aminoethylglycyl-L-cysteinyl-L-lysyl-L-asparaginyl-L-phenylalanyl-L-phenylalanyl-L-tryptophyl-L-lysyl-L-threonyl-L-phenylalanyl-L-threonyl-L-seryl-L-cysteinyl-aminoethylglycine] (H-[Gly(N-2-aminoethyl)]CKNFFWKTFTSC[Gly(N-2-aminoethyl)]-OH) the “gastric antisecretory activity (pH and acid concentration), in words, relative to somatostatin” value [1] was “less active than somatostatin”.

For (D-Trp^8)-somatostatin, the “potency in inhibition of growth hormone, insulin and glucagon relative to somatostatin” value [2] is listed as “higher potency than somatostatin” and the “potency in inhibition of pentagastrin-induced gastric acid secretion relative to somatostatin” value [3] is listed as “less potent”.

For “Aminoethylglycyl-aminoethylglycyl-L-cysteinyl-L-lysyl-L-asparaginyl-L-phenylalanyl-L-phenylalanyl-D-tryptopyl-L-lysyl-L-threonyl-L-phenylalanyl-L-threonyl-L-seryl-L-cysteine [Compound N]”, the “gastric antisecretory activity after intragastric administration” value (gastric secretion [4]) was “active after intragastric administration”.

With `C[C@H](NC(=O)CNCCN)C(=O)NCC(=O)N[C@@H](CS)C(=O)N[C@@H](CCCCN)C(=O)N[C@@H](CC(N)=O)C(=O)N[C@@H](Cc1ccccc1)C(=O)N[C@@H](Cc1ccccc1)C(=O)N[C@@H](Cc1c[nH]c2ccccc12)C(=O)N[C@@H](CCCCN)C(=O)N[C@H](C(=O)N[C@@H](Cc1ccccc1)C(=O)N[C@H](C(=O)N[C@@H](CO)C(=O)N[C@@H](CS)C(=O)O)[C@@H](C)O)[C@@H](C)O` [Compound E, Aminoethylglycyl-L-alanyl-glycyl-L-cysteinyl-L-lysyl-L-asparaginyl-L-phenylalanyl-L-phenylalanyl-L-tryptophyl-L-lysyl-L-threonyl-L-phenylalanyl-L-threonyl-L-seryl-L-cysteine] the “gastric antisecretory activity (pH and acid concentration), in words, relative to somatostatin” value [1] was “severely decreases activity”.

In the case of `C[C@H](N)C(=O)NCC(=O)N[C@H]1CSSC[C@@H](C(=O)O)NC(=O)[C@H](CO)NC(=O)[C@H]([C@@H](C)O)NC(=O)[C@H](Cc2ccccc2)NC(=O)[C@H]([C@@H](C)O)NC(=O)[C@H](CCCCN)NC(=O)[C@H](Cc2c[nH]c3ccccc23)NC(=O)[C@H](Cc2ccccc2)NC(=O)[C@H](Cc2ccccc2)NC(=O)[C@H](CC(N)=O)NC(=O)[C@H](CCCCN)NC1=O` [Compound A, somatostatin], the “Fucose, gastric mucosal concentration (mean)” value (gastric mucus production; [11]) is reported as 46.2 μg/total sample, the “Hexose, gastric mucosal concentration (mean)” value (gastric mucus production; [11]) is reported as 235.3 μg/total sample and the “Total Protein, gastric mucosal concentration (mean)” value (gastric mucus production; [11]) is reported as 350.0 μg/total sample. For the same compound, the “gastric mucosal carbohydrates versus control, in words” value (gastric mucus production; 1 hour after treatment) was “did not appear to influence concentration of carbohydrates”, the “gastric mucosal total protein versus control, in words” value (gastric mucus production; 1 hour after treatment) was “produced an increment of the total protein” and the “prevention of restraint-immersion induced gastric ulceration, in words” value ([5]; first study, s.c. twice) was “effective in preventing restraint-immersion induced gastric ulceration”. For the same compound, the “antiulcerogenic ED50” value ([5]; first study: s.c. just prior to restraint-immersion, repeated two hours later, 4 h restraint-immersion) was 0.35 mg/kg, the ED50 ([5]; second study: administered only once just prior to restraint-immersion, 4 h) was 6.70 mg/kg and the “effect on basal gastric secretion and gastrin release” value [6] was “inhibits basal gastric secretion and gastrin release”. For the same compound, the “ulcers relative to untreated animals” value ([7]; 100 μg linear protamine-zinc-somatostatin/rat s.c. before, 3 h and 6 h, after 9 hours of immobilization) was 1/5, the “effect on restraint ulcer formation” value ([7]; subcutaneous administration in rats, Zierden et al. 1976) was “prophylactic effect on restraint ulcer formation” and the “effect on peptic ulcer bleeding” value (peptic ulcer bleeding) was “stop peptic ulcer bleeding”. For the same compound, the “duration of inhibitory effects on gastric secretion” value (gastric secretion [8]) was “short duration”, the “prevention of duodenal ulcers” value [9] was “effectively prevented the formation of duodenal ulcers” and the effect on bleeding [10] was “immediate cessation of the bleeding after 1 hour”. For the same compound, the “endoscopy at the end of treatment period” value [10] was “two ulcers in the process of healing”.
